The record followed here is patent US12528782B2, “Prodrugs in the modulation of interleukin” (BRISTOL-MYERS SQUIBB COMPANY, priority 2019, dated 2026).

What is called AUC is the area under the concentration-time curve, a measure of exposure. Broadly, the Cmax is the peak of the concentration-time curve. What is called Tmax is the time from dosing to the highest level.

SMILES strings stand for the structures.

The data set is described as follows: PK in rats after PO dosing of the prodrug of Example 1: circulating parent Compound I and prodrug. It counts as in vivo. To be noted: for AUC / Cmax / Tmax: rat, in vivo, analyte = labelled substance.
Where [1] appears, read: 5 mg/kg, Example 1 dosed PO at 5 mpk.
[2] abbreviates: 25 mg/kg, Example 1 dosed PO at 25 mpk.
Setting [3] is: 150 mg/kg, Example 1 dosed PO at 150 mpk.

As for `[2H]C([2H])([2H])NC(=O)c1cnc(NC(=O)C2CC2)cc1Nc1cccc(-c2nnn(C)n2)c1OC` [Compound I], the “AUC Multiple+” value was 11X (Example 1 dosed PO at 5 mpk), 57X (Example 1 dosed PO at 25 mpk) and 473X (Example 1 dosed PO at 150 mpk). For the same molecule, the AUC under setting [1] is 19.2 ± 1.7 µM·h, the AUC under setting [2] is 96.9 ± 13.2 µM·h and the AUC under setting [3] amounted to 804 ± 26.9 µM·h. For the same molecule, the Cmax under setting [1] was determined as 4.91 ± 1.4 µM, the Cmax under setting [2] was 13 ± 1.4 µM and the Cmax under setting [3] worked out at 58.2 ± 5.7 µM. Also, the Tmax is 0.5 h under setting [1], 3 h under setting [2] and 3 h under setting [3].
Take `[2H]C([2H])([2H])NC(=O)c1cn(COP(=O)([O-])[O-])/c(=N/C(=O)C2CC2)cc1Nc1cccc(-c2nnn(C)n2)c1OC.[Na+].[Na+]` [Example 1]: the “circulating prodrug as % of parent” value (PO, 150 mpk dose) is on record as “less than 0.05%”. Also, the “exposure to the prodrug (circulating prodrug following administration)” value (PO, therapeutic doses (5 and 25 mpk)) was “no exposure”. Further, under setting [3], the AUC is 0.33 ± 0.21 µM·h, the maximum concentration (Cmax) was 0.69 ± 0.24 µM and the Tmax came out at 0.25 h.
